According to the NIST ThermoML archive (doi:10.1021/je5002686):
Where “and” joins values, the source holds several entries; their conditions need not be identical. Equal values may be shown once.

Settings: Liquid, Vibrating tube method

CCOC(F)(C(F)(F)C(F)(F)C(F)(F)F)C(F)(C(F)(F)F)C(F)(F)F (stereo not given) [2-trifluoromethyl-3-ethoxydodecafluorohexane]
Settings	mass density
350 K, 40000 kPa	1622.9 kg/m3 and 1622.8 kg/m3
350 K, 40010 kPa	1622.7 kg/m3
350 K, 44990 kPa	1632.7 kg/m3 and 1632.5 kg/m3
350 K, 45000 kPa	1632.5 kg/m3
350 K, 49990 kPa	1641.9 kg/m3 and 1641.7 kg/m3
350 K, 50000 kPa	1641.8 kg/m3
370 K, 490 kPa	1465.7 kg/m3 and 1465.9 kg/m3
370 K, 500 kPa	1466 kg/m3
370 K, 1000 kPa	1468.6 kg/m3 and 1468.4 kg/m3 and 1468.5 kg/m3
370 K, 1990 kPa	1473.6 kg/m3 and 1473.5 kg/m3
370 K, 2000 kPa	1473.4 kg/m3
370 K, 2990 kPa	1478.5 kg/m3
370 K, 3000 kPa	1478.2 kg/m3 and 1478.5 kg/m3
370 K, 3990 kPa	1483.1 kg/m3
370 K, 4000 kPa	1483.1 kg/m3 and 1483 kg/m3
370 K, 4990 kPa	1487.6 kg/m3
370 K, 5000 kPa	1487.5 kg/m3 and 1487.6 kg/m3
370 K, 10000 kPa	1508.2 kg/m3 and 1507.9 kg/m3 and 1508.1 kg/m3
370 K, 14990 kPa	1526 kg/m3 and 1525.8 kg/m3
370 K, 19990 kPa	1541.7 kg/m3 and 1541.8 kg/m3
370 K, 20000 kPa	1541.9 kg/m3
370 K, 25000 kPa	1556.3 kg/m3 and 1556.1 kg/m3 and 1556.2 kg/m3
370 K, 30000 kPa	1569.5 kg/m3 and 1569.2 kg/m3 and 1569.4 kg/m3
370 K, 34990 kPa	1581.5 kg/m3
370 K, 35000 kPa	1581.7 kg/m3 and 1581.4 kg/m3
370 K, 40000 kPa	1593 kg/m3 and 1592.7 kg/m3 and 1592.8 kg/m3
370 K, 45000 kPa	1603.6 kg/m3 and 1603.3 kg/m3 and 1603.4 kg/m3
370 K, 49990 kPa	1613.2 kg/m3 and 1613.4 kg/m3
370 K, 50020 kPa	1613.6 kg/m3
390 K, 490 kPa	1417.9 kg/m3
390 K, 500 kPa	1417.8 kg/m3 and 1417.7 kg/m3
390 K, 990 kPa	1420.9 kg/m3 and 1421.1 kg/m3
390 K, 1000 kPa	1421.1 kg/m3
390 K, 1990 kPa	1427.2 kg/m3 and 1427.4 kg/m3
390 K, 2000 kPa	1427.1 kg/m3
390 K, 3000 kPa	1433.2 kg/m3 and 1433.1 kg/m3
390 K, 3010 kPa	1433.3 kg/m3
390 K, 3990 kPa	1438.8 kg/m3 and 1438.7 kg/m3 and 1438.9 kg/m3
390 K, 5000 kPa	1444.3 kg/m3 and 1444.1 kg/m3 and 1444.4 kg/m3
390 K, 10000 kPa	1468.4 kg/m3 and 1468.3 kg/m3 and 1468.5 kg/m3
390 K, 14990 kPa	1488.9 kg/m3 and 1489 kg/m3
390 K, 15000 kPa	1488.9 kg/m3
390 K, 19990 kPa	1506.8 kg/m3 and 1507 kg/m3
390 K, 20000 kPa	1507 kg/m3
390 K, 25000 kPa	1523 kg/m3 and 1522.9 kg/m3 and 1523.1 kg/m3
390 K, 29990 kPa	1537.6 kg/m3
390 K, 30000 kPa	1537.6 kg/m3 and 1537.4 kg/m3
390 K, 35000 kPa	1550.9 kg/m3 and 1550.8 kg/m3 and 1551 kg/m3
390 K, 40000 kPa	1563.2 kg/m3 and 1563.1 kg/m3 and 1563.3 kg/m3
390 K, 44990 kPa	1574.8 kg/m3
390 K, 45000 kPa	1574.7 kg/m3 and 1574.6 kg/m3
390 K, 49980 kPa	1585.3 kg/m3
390 K, 49990 kPa	1585.5 kg/m3
410 K, 990 kPa	1370.5 kg/m3
410 K, 3990 kPa	1392.5 kg/m3
410 K, 4000 kPa	1392.7 kg/m3
410 K, 4990 kPa	1399.3 kg/m3
410 K, 10000 kPa	1427.9 kg/m3
410 K, 15000 kPa	1451.6 kg/m3 and 1451.5 kg/m3
410 K, 19990 kPa	1471.8 kg/m3
410 K, 20000 kPa	1472 kg/m3
410 K, 24990 kPa	1489.9 kg/m3 and 1489.7 kg/m3
410 K, 29990 kPa	1506 kg/m3
410 K, 30000 kPa	1505.8 kg/m3
410 K, 34990 kPa	1520.6 kg/m3
410 K, 35000 kPa	1520.5 kg/m3
410 K, 40000 kPa	1534 kg/m3 and 1533.9 kg/m3
410 K, 45000 kPa	1546.4 kg/m3
410 K, 45010 kPa	1546.3 kg/m3
410 K, 50000 kPa	1558 kg/m3
410 K, 50020 kPa	1557.9 kg/m3
430 K, 500 kPa	1310.6 kg/m3 and 1310.4 kg/m3
430 K, 1000 kPa	1316.1 kg/m3 and 1315.9 kg/m3 and 1316.2 kg/m3
430 K, 2000 kPa	1326.2 kg/m3 and 1326 kg/m3 and 1326.3 kg/m3
430 K, 3000 kPa	1335.6 kg/m3 and 1335.4 kg/m3 and 1335.7 kg/m3
430 K, 4000 kPa	1344.3 kg/m3 and 1344.1 kg/m3
430 K, 4990 kPa	1352.1 kg/m3 and 1352.4 kg/m3
430 K, 5000 kPa	1352.4 kg/m3
430 K, 9990 kPa	1386.6 kg/m3 and 1386.4 kg/m3
430 K, 14990 kPa	1413.9 kg/m3
430 K, 15000 kPa	1413.8 kg/m3 and 1414 kg/m3
430 K, 19990 kPa	1436.8 kg/m3 and 1437 kg/m3
430 K, 20000 kPa	1436.9 kg/m3
430 K, 24990 kPa	1456.9 kg/m3
430 K, 25000 kPa	1456.9 kg/m3 and 1456.8 kg/m3
430 K, 29990 kPa	1474.6 kg/m3
430 K, 30000 kPa	1474.7 kg/m3
430 K, 30010 kPa	1474.5 kg/m3
430 K, 34990 kPa	1490.4 kg/m3
430 K, 35000 kPa	1490.6 kg/m3
430 K, 40000 kPa	1505.2 kg/m3 and 1505 kg/m3
430 K, 40010 kPa	1505.2 kg/m3
430 K, 45000 kPa	1518.6 kg/m3 and 1518.4 kg/m3
430 K, 49960 kPa	1530.9 kg/m3
430 K, 49990 kPa	1531 kg/m3
430 K, 50000 kPa	1530.9 kg/m3
450 K, 1990 kPa	1269.4 kg/m3
450 K, 3980 kPa	1292.6 kg/m3
450 K, 4000 kPa	1292.9 kg/m3
450 K, 4990 kPa	1302.9 kg/m3 and 1303 kg/m3
450 K, 10000 kPa	1344.2 kg/m3 and 1344.1 kg/m3 and 1344.3 kg/m3
450 K, 14980 kPa	1375.6 kg/m3
450 K, 14990 kPa	1375.9 kg/m3
450 K, 15000 kPa	1375.9 kg/m3
450 K, 19990 kPa	1401.9 kg/m3 and 1401.7 kg/m3
450 K, 25000 kPa	1424.1 kg/m3 and 1424 kg/m3
450 K, 29990 kPa	1443.6 kg/m3 and 1443.4 kg/m3
450 K, 30000 kPa	1443.6 kg/m3
450 K, 34990 kPa	1460.8 kg/m3 and 1461 kg/m3
450 K, 35000 kPa	1461 kg/m3
450 K, 39990 kPa	1476.8 kg/m3
450 K, 40000 kPa	1476.6 kg/m3 and 1476.8 kg/m3
450 K, 45000 kPa	1491.2 kg/m3 and 1491.1 kg/m3
450 K, 49980 kPa	1504.5 kg/m3
450 K, 49990 kPa	1504.5 kg/m3
450 K, 50000 kPa	1504.4 kg/m3
470 K, 5010 kPa	1250.5 kg/m3
470 K, 9990 kPa	1300.6 kg/m3 and 1300.8 kg/m3
470 K, 10010 kPa	1300.7 kg/m3
470 K, 14990 kPa	1337.3 kg/m3
470 K, 15000 kPa	1337.3 kg/m3 and 1337.5 kg/m3
470 K, 19990 kPa	1366.6 kg/m3
470 K, 20000 kPa	1366.7 kg/m3 and 1366.9 kg/m3
470 K, 25000 kPa	1391.4 kg/m3 and 1391.3 kg/m3 and 1391.5 kg/m3
470 K, 29990 kPa	1412.7 kg/m3
470 K, 30000 kPa	1412.8 kg/m3 and 1412.9 kg/m3
470 K, 34990 kPa	1431.7 kg/m3 and 1431.8 kg/m3
470 K, 35010 kPa	1431.7 kg/m3
470 K, 39990 kPa	1448.8 kg/m3
470 K, 40000 kPa	1448.7 kg/m3
470 K, 44990 kPa	1464.2 kg/m3 and 1464.1 kg/m3
470 K, 45000 kPa	1464.3 kg/m3
470 K, 49990 kPa	1478.4 kg/m3
470 K, 50000 kPa	1478.6 kg/m3
470 K, 50010 kPa	1478.5 kg/m3
